For assay [1], the system named is PARP, BCL-XL, CHOP, p-eIF-2 in NSCLC cell lines. Description: Western blot of apoptosis and ER stress markers. In kind it is cell-based, mouse (LLC), human (H1650). As for the experimental part:
FIGS. 1A-lE depict that WFA induces ER stress-mediated apoptosis in NSCLC cell lines. (FIG. 1A) NSCLC cells were plated on 96-well plates and treated with different concentrations of WFA ([…]) in triplicates. Forty-eight hours post-treatment, cell viability was determined using Cell Titer-Glo assay. Luminescence values were normalized to control untreated cells and IC50 values are represented as the mean of two independent experiments ±SEM. (FIG. 1B) NSCLC cells were treated WFA for forty-eight hours, then collected to measure apoptotic cell death using Annexin V assay in LLC cells, H1650 cells, and A549 cells. Percentages of early (annexin*DAPI-) and late (annexin*DAPI+) apoptotic cells are represented as means of two separate experiments ±SEM and statistical significance was calculated using one-way ANOVA and a Fisher LSD post hoc test was used to compare the mean of each group to that of the control group. (FIGS. 1C-1D) WFA treated cells were collected in Trizol and total RNA was isolated to measure the levels of Bax (FIG. 1C) and Bcl2 (FIG. 1D) mRNA using qRT-PCR. PCR experiments were repeated at least twice, and one representative experiment is shown as mean±SEM of the technical replicates. (FIG. 1E) Western blot of ER stress markers p-eIF-2 and CHOP was performed using total lysates of WFA-treated LLC cells. The quantification of western blot band density was performed using Image J software v.1.54d and normalized to housekeeping control protein in LLC cells (0-actin). […] Data were obtained from two independent experiments.
FIGS. 7A-7I depict qRT-PCR analysis of the change in expression of pro-apoptotic and anti-apoptotic induced by WFA treatment. WFA increased the mRNA levels of proapoptotic protein Bak-1 in (FIG. 7A) LLC cells and BAD in (FIG. 7C) H1650 cells. […]
Total protein was isolated using Radioimmunoprecipitation Assay (RIPA) buffer (Thermo Fisher Scientific, Waltham, MA, USA) and sonication of cell pellets using Branson digital sonifier 450. […] Then, protein levels were quantified using a Pierce Coomassie Protein assay kit (Thermo Fisher Scientific, Waltham, MA, USA) according to the manufacturer's instruction and the absorbance values at 595 nm were measured using a plate reader (Bio Tek, Winooski, VT, USA) and used to calculate protein concentrations. […] Protein bands were detected using SuperSignal West Pico PLUS Chemiluminescent Substrate or West Femto Maximum Sensitivity Substrate (Thermo Fisher Scientific, Waltham, MA, USA) and imaged using the ChemiDoc XRS imaging system (Bio-Rad, Hercules, CA, USA) according to the manufacturer's instructions. Band density was measured using Image J software version 1.54d and was normalized to housekeeping proteins (0-actin or Vinculin). […]

In assay [2] the test system is ecto-CRT in LLC, H1650 and A549 cells. Description: Ecto-CRT (cell surface calreticulin) by flow cytometry, NSCLC. Particulars: 48 h. In kind it is cell-based, mouse (LLC), human (H1650. As for the experimental part:
Cells were treated with WFA for 48 h then collected using Accutase cell detachment solution. […] (FIG. 2E) Bone marrow-derived DC were co-cultured with WFA-pretreated LLC cells (24 h) in a ratio 5:1 of DC:LLC cells for 24 h.
In vitro WFA-treated or control cells were collected using Accutase cell detachment solution and stained with FACS-diluted (PBS, 10% FBS, 2 mMEDTA) pre-titrated fluorophore conjugated or primary unconjugated antibody solutions (Table 1) for 30 min on ice in the dark. In case of fluorophore-conjugated antibodies, samples are washed and immediately acquired after adding DAPI viability dye, while samples stained with unconjugated antibodies are incubated with the proper secondary fluorophore-conjugated antibody for 30 min before washing and acquisition. For in vivo experiments, the processed tumor or spleen single cell suspensions were used for surface staining with the pre-titrated antibodies (Table 1) for 30 min on ice in the dark. To exclude the dead cells from the analysis, a fixable live/dead Zombie Aqua viability kit (Biolegend, San Diego, CA, USA) was used according to the manufacturer's protocol. Samples were then fixed using 2% PFA for 15 min then washed and stored at 4° C. before acquisition. […]

For assay [3], the system named is ecto-CRT in MC38 and HCT-116 colorectal cancer cell lines. Description: Ecto-CRT by flow cytometry, colorectal cancer. Format: cell-based, mouse (MC38), human (HCT-116). Here is the method:
FIGS. 8A-8G depict that WFA induced ICD and PD-L1 upregulation in colorectal cancer cell lines. WFA increased the levels of ecto-CRT in the murine colorectal cancer cell line (FIG. 8A) MC-38 and human cell line (FIG. 8B) HCT-116. WFA increased the expression of PD-L1 in both (FIG. 8C) MC-38 and (FIG. 8D) HCT-116 cells. […] H1650 cells (at a higher density) were treated with a higher concentration of WFA (2 and 4 μM) to facilitate cell collection and protein isolation. The band density was quantified using Image J software and normalized to the housekeeping protein. The fold change from untreated control was averaged from two independent experiments ±SEM and one-way ANOVA was used to calculate the statistical significance. A Fisher LSD post hoc test was performed to compare the treatments to the control in (FIG. 8E) LLC, (FIG. 8F) H1650, (FIG. 8G) A549 cells. * p<0.05, ** p<0.01, *** p<0.001, **** p<0.0001.
In vitro WFA-treated or control cells were collected using Accutase cell detachment solution and stained with FACS-diluted (PBS, 10% FBS, 2 mMEDTA) pre-titrated fluorophore conjugated or primary unconjugated antibody solutions (Table 1) for 30 min on ice in the dark. […]
For orientation: Flow cytometry measures light scatter and fluorescence of single cells or particles in a stream.

Turning to `CC1=C(CO)C(=O)O[C@@H]([C@@H](C)[C@H]2CC[C@H]3[C@@H]4C[C@H]5O[C@]56[C@@H](O)C=CC(=O)[C@]6(C)[C@H]4CC[C@]23C)C1` [WFA, Withaferin A], the “levels of BCL-XL” value in assay [1] (H1650 cells) was “reduced”. Besides, the PARP cleavage entry in assay [1] (LLC and H1650 cells) is listed as “increased”. Besides, in assay [1] (LLC cells), the “levels of C/EBP homologous protein (CHOP)” value was “increases” and the “phosphorylation of eIF-2” value is “increases”. In assay [2], the ecto-CRT expression result is “increased”. For the same molecule, the “levels of ecto-CRT” value in assay [3] is recorded as “increased”.

Source of the values: patent US20240293430A1, “WITHAFERIN A AND IMMUNE CHECKPOINT BLOCKER COMBINATION THERAPIES” (University of South Florida, priority 2023, published 2024).
